From patent US9102620B2, “Deuterated N-ethyl-N-phenyl-1,2-dihydro-4-hydroxy-5-chloro-1-methyl-2-oxoquinoline-3-carboxamide, salts and uses thereof” (TEVA PHARMACEUTICAL INDUSTRIES, LTD., priority 2010, dated 2015)
Several values for one entry are separate records, joined by “and”; a condition that tells them apart may be missing. Identical values can stand only once. Like-named read-outs stand apart in the source and are kept apart here.

Columns and labels:
[1] = Pharmacokinetic profile in rat plasma following oral administration; assay type: in vivo
Procedure: The main objectives of this example were: • Quantification of Compound 1, Compound 2, Compound 3 and Laquinimod in rat plasma using LC/MS/MS bioanalytical method. • Characterization of the pharmacokinetic profile of Compound 1, Compound 2, Compound 3 and Laquinimod following oral (PO) administration at a dose of 0.2 mg/kg. • The measurement DELAQ concentrations in the collected plasma samples. Rats cannulated at the right common jugular vein by polyethylene tubing were used. In the in-life part, three cannulated female rats were treated with each of the four test articles at dose of 0.2 mg/kg. Blood was withdrawn from the rats at five different time points for the preparation of plasma. The concentrations of Compound 1, Compound 2, Compound 3, laquinimod, and DELAQ were determined in these plasma samples, using applicable LC/MS/MS methods. Oral administration was performed by oral gavage at a dosage volume of 5 ml/kg using a blunt feeding stainless steel needle (Popper & Sons, USA). Body weights were measured before dose administration and doses were calculated on the basis of individual body weight. Blood were withdrawn from animals at the following time points: 1, 2, 4, 8 and 24 hours after dosing as detailed in the table below. The actual sampling time were recorded. Each animal was restrained firmly. After the removal of the seal the port of the cannula was accessed with an appropriate blunted needle mounted on a syringe containing PBS. After having withdrawn approximately 100 μL of blood, the syringe was changed to a clean heparinized syringe. Approximately 250 μL of blood was collected for the preparation of plasma. The first 100 μL fraction of blood was returned and 250 μL of PBS was given to the animal through the catheter. The catheter was filled by heparinized glycerol (100 IU/ml) solution prepared by mixing 10 ml stock heparin (200 IU/ml) with 10 ml of sterile glycerol (d=1.26 g/mL). Blood specimens were mixed immediately and were placed on water ice. Whole blood was centrifuged at 2500 g for 10 min at 4° C., and the separated plasma was transferred into pre-labeled polypropylene tubes and the tubes were frozen at −70° C. within 70 minutes of collection. The concentrations of test items (Compound 1, Compound 2, Compound 3 and Laquinimod) and the concentration of DELAQ were determined in the plasma samples by using reliable LC/MS/MS assay. Pharmacokinetic parameters were calculated and the mean plasma levels versus time curves were evaluated. The following pharmacokinetic parameters were determined from the mean plasma concentration-time data (mean of three animals at each time point) of Compound 1, Compound 2, Compound 3 and Laquinimod.

[2] = test system: MOG induced EAE; experiment: MOG induced EAE in C57BL/6 mice; assay type: in vivo; conditions: 10 mg/kg orally, daily; for Mortality: Day 0 to Day 30; for % inhibition 1 (according to incidence) / % inhibition 2 (according to MMS) / % inhibition 3 (according to GMS): compared to vehicle; for Incidence: sick mice/group
[3] = test system: CYP1A2; conditions: human, 3 days; for Enzyme activity, Phenacetin O-dealkylation (CYP1A2) / Percent positive control, Phenacetin O-dealkylation (CYP1A2) activity: hepatocytes
Procedure: (§1) After treatment, the cells were incubated in situ with marker substrates for the analysis of phenacetin O-dealkylation (marker for CYP1A2) and midazolam 1′-hydroxylation (marker for CYP3A4/5) by LC/MS/MS.
Incubations of hepatocytes with probe substrates were conducted in accordance with SOP L5041.02. Approximately 24 hours after the last treatment, spent media was aspirated from the wells, and each well was rinsed two times with pre-warmed (37±2° C.) fresh culture media. Media was aspirated from the wells and reactions were started by addition of 200 μL pre-warmed media containing the probe substrate to each well. […] At 30 minutes, an aliquot (150 μL) of the incubation mixture was removed and added to a well of a 96-well plate containing 300 μL of stop reagent (acetonitrile) and internal standard (Table 2). The mixtures were mixed thoroughly and allowed to sit for at least 15 minutes at 2-8° C. Samples were centrifuged at 2000×g for 10 minutes at 2-8° C., and supernatant fractions were analyzed by LC/MS/MS.
All analyses were performed with validated LC/MS/MS methods. The procedures used for the analysis of each metabolite followed the applicable LC/MS/MS analytical method SOPs and are summarized in Table 2. The MS equipment was either an ABI Sciex (Applied Biosystems/MDS SCIEX) API 4000 or API 3000 instrument with Shimadzu HPLC pumps and autosampler systems.
Individual rates of reaction from like treatment groups were averaged, and for those groups with n≧3, standard deviations were determined. Fold increases were determined by dividing the enzymatic rate for each treatment group by that of the vehicle control. Percent positive control was calculated with the following equation: […]

[4] = test system: CYP1A2 mRNA; conditions: human, 3 days
Procedure: as §1
Approximately 24 hours after the last treatment, hepatocytes were lysed in TRIzol reagent after the in situ marker substrate incubations, and cell lysates were stored at −75±5° C. For human hepatocyte preparation H971, media from six wells per treatment group was aspirated, and approximately 132 μL TRIzol were added to each well. The cell lysates were mixed by repeated pipetting. Total RNA was isolated from the cell lysates using the TRIzol protocol (Invitrogen) and was purified using the RNeasy Mini Kit (Qiagen Inc.) according to SOP L6161.02. RNA quality and concentration were determined by measuring absorbance at 260 and 280 nm on a BioTek Synergy HT plate reader (BioTek Instruments, Inc.) with KC4 Signature software (version 3.4 Rev 21, BioTek Instruments, Inc.) according to SOP L6162.02. The analysis of RNA integrity was carried out with the RNA 6000 Nano Assay Kit on an Agilent 2100 Bioanalyzer (Agilent Technologies, Inc.) according to SOP L6162.02. Single-stranded cDNA was prepared from RNA with the RT Master Mix using the AB 7300 Real Time PCR system thermocycling program or AB 7900HT Fast Real Time PCR System thermocycling program (Applied Biosystems) according to SOP L6160.04. […] The RT Master Mix was added to each RNA sample to complete the components of the reaction. No template controls (NTCs) were included in the analysis. For the NTC reactions, RNase-free water was added in place of the RNA sample. The cDNA prepared samples were stored at −20±5° C. prior to analysis by qRT-PCR.
Quantitative RT-PCR was carried out according to SOP L6160.04 (XenoTech, LLC) and the Applied Biosystems protocol. Each PCR was performed in triplicate. A Primer Mix was prepared for each Gene Expression assay. A typical Primer Mix contained TaqMan Universal Master Mix (1×), Gene Expression Assay (1×, 900 nM forward and reverse primers) and RNase-free water. The Reaction Mix was prepared by adding the Primer Mix to cDNA. A percentage of samples (no less than 10%) included NACs. […] The relative quantity of the target cDNA compared with that of the control cDNA (GAPDH) was determined by the ΔΔCt method (Applied Biosystems User Bulletin #2). Relative quantification measures the change in mRNA expression in a test sample relative to that in a control sample (e.g., DMSO). This method assumes that the efficiency of the target amplification and the efficiency of the endogenous control amplification are approximately equal.
For qRT-PCR, data were processed using the Sequence Detection System (SDS) Software version 1.4, for Relative Quantification (Applied Biosystems). This software analyzes relative gene expression using the comparative Ct method (ΔΔCt), which relates the PCR signal of the target transcript to the PCR signal of the target in an untreated control. Both the treated sample and the untreated control signals are normalized to the endogenous control (GAPDH), for which expression is not affected by treatment and expression is constant throughout the tissue being tested. […] Calculations are as follows: ΔCt=Ct(target)−Ct(endogenous control) 1. ΔΔCt=ΔCt(treated sample)−ΔCt(untreated control) 2. Fold change in expression=2−ΔΔCt 3.
The level of mRNA expression relative to the positive control was calculated as follows: […]

[5] = female, rat, po, 0.2 mg/kg, Average of rats
[6] = female, rat, po, 0.2 mg/kg, Average of rats, read-out: Cmax
[7] = female, rat, po, 0.2 mg/kg, Average of rats, read-out: Tmax
[8] = female, rat, po, 0.2 mg/kg, individual rats
[9] = female, rat, po, 0.2 mg/kg, individual rats, read-out: Cmax
[10] = female, rat, po, 0.2 mg/kg, individual rats, read-out: Tmax
[11] = individual rats, oral 0.2 mg/kg

| Compound | AUC(0-inf) [1, 5] [µg·h/mL] | AUC(0-t) [1, 5] [µg·h/mL] | half-life [1, 5] [h] | Cmax [1, 6] [µg/mL] | Tmax [1, 7] [h] | AUC(0-inf) [1, 8] [µg·h/mL] | half-life [1, 8] [h] | Cmax [1, 9] [µg/mL] | Tmax [1, 10] [h] | AUCinf [1, 11] | AUClast [1, 11] | Cmax [1, 11] | T1/2 [1, 11] | Tmax [1, 11] [h] | GMS value (group mean score) [2] | MMS value (mean maximal score) [2] | Mean Duration [2] [days] | Mean Onset [2] [days] | activity in inhibition of EAE clinical signs compared to laquinimod [2] | Mortality [2] | further results |
| --- | --- | --- | --- | --- | --- | --- | --- | --- | --- | --- | --- | --- | --- | --- | --- | --- | --- | --- | --- | --- | --- |
| [2H]c1c([2H])c([2H])c(N(CC)C(=O)c2c(O)c3c(Cl)cccc3n(C)c2=O)c([2H])c1[2H] [Compound 1, N-ethyl-N-D5-phenyl-1,2-dihydro-4-hydroxy-5-chloro-1-methyl-2-oxoquinoline-3-carboxamide] | 13.8 | 10.4 | 11.3 | 0.774 | 1.8 | 19.3 | 13.4 | 0.945 | 1 | 13.6179 µg·h/mL and 9.7338 µg·h/mL and 12.4479 µg·h/mL | 10.0117 µg·h/mL and 8.0393 µg·h/mL and 10.0616 µg·h/mL | 0.7307 µg/mL and 0.6119 µg/mL and 0.8095 µg/mL | 12.1 h and 9.5 h and 10.0 h | 2.0 | 0.74 ± 0.86 | 1.5 ± 1.7 | 7.9 ± 8.2 | 22.1 ± 8.9 | no significant difference in activity | 0/15 | AUC(0-t) [1, 8]: 13.7 µg·h/mL; % inhibition 1 (according to incidence) [2]: 42.9%; % inhibition 2 (according to MMS) [2]: 53.1%; % inhibition 3 (according to GMS) [2]: 66.5%; Incidence [2]: 8/15 |
| [2H]c1c([2H])c([2H])c(N(C(=O)c2c(O)c3c(Cl)cccc3n(C)c2=O)C([2H])([2H])C([2H])([2H])[2H])c([2H])c1[2H] [Compound 3, N-D5-ethyl-N-D5-phenyl-1,2-dihydro-4-hydroxy-5-chloro-1-methyl-2-oxoquinoline-3-carboxamide] | 15.8 | 10.5 | 12.4 | 0.835 | 1.4 | 15.8 | 11.5 | 0.907 | 1 | 18.2462 µg·h/mL and 15.2252 µg·h/mL and 14.8451 µg·h/mL and 14.6437 µg·h/mL | 12.11 µg·h/mL and 12.4715 µg·h/mL and 11.2804 µg·h/mL and 5.3178 µg·h/mL and 11.156 µg·h/mL | 0.8004 µg/mL and 0.7289 µg/mL and 0.8332 µg/mL and 0.9043 µg/mL | 14.4 h and 12.7 h and 12.0 h and 11.6 h | 2.0 | 0.89 ± 0.94 | 1.6 ± 1.6 | 9.6 ± 9.4 | 21.5 ± 9.3 | no significant difference in activity | 0/15 | % inhibition 1 (according to incidence) [2]: 28.6%; % inhibition 2 (according to MMS) [2]: 50.1%; % inhibition 3 (according to GMS) [2]: 59.7%; Incidence [2]: 10/15 |
| COCC(=O)O[C@]1(CCN(C)CCCc2nc3ccccc3[nH]2)CCc2cc(F)ccc2[C@@H]1C(C)C [Mibefradil] | – | – | – | – | – | – | – | – | – | – | – | – | – | – | – | – | – | – | – | – | Fold Increase, Phenacetin O-dealkylation (CYP1A2) activity ([3]; 10 μM): 3.76 fold; Enzyme activity, Phenacetin O-dealkylation (CYP1A2) ([3]; 10 μM): 11.3 ± 2.1 pmol/mg protein/min; Percent positive control, Phenacetin O-dealkylation (CYP1A2) activity ([3]; 10 μM): 10.1%; mRNA Fold increase, CYP1A2 ([4]; 10 μM): 0.423 fold; decrease in CYP1A2 mRNA levels compared to vehicle control ([4]; hepatocytes, 10 μM): 57.7%; mRNA Percent positive control, CYP1A2 ([4]; hepatocytes, 10 μM): −7.61% |
| COc1ccc2[nH]c([S+]([O-])Cc3ncc(C)c(OC)c3C)nc2c1 (centres unmarked) [Omeprazole] | – | – | – | – | – | – | – | – | – | – | – | – | – | – | – | – | – | – | – | – | Enzyme activity, Phenacetin O-dealkylation (CYP1A2) ([3]; 100 μM): 84.9 ± 5.4 pmol/mg protein/min; Percent positive control, Phenacetin O-dealkylation (CYP1A2) activity ([3]; 100 μM): 100%; mRNA Fold increase, CYP1A2 ([4]; 100 μM): 8.58 fold; mRNA Percent positive control, CYP1A2 ([4]; hepatocytes, 100 μM): 100% |
